Literature values as cited in patent publication US20240180159A1, “NEW OIL SUSPENSION CONCENTRATE COMPOSITION” (SYNGENTA CROP PROTECTION AG, priority 2021, published 2024).

Details: basic pH 8-14 conditions

For `CN1COCN(Cc2cnc(Cl)s2)/C1=N\[N+](=O)[O-]` [thiamethoxam], the susceptibility to hydrolysis is listed as “susceptible to hydrolysis”.
